The text below walks through data of PubChem BioAssay (NCI).

Common to all, as to test: growth of human tumour cells (NCI), 48 h
The subject of experiment [1] is HL-60(TB) leukemia.
Experiment [2] concerns MALME-3M melanoma.
Experiment [3] relates to DU-145 prostate.
Experiment [4] relates to SK-MEL-28 melanoma.
Experiment [5] deals with MDA-MB-435.
In experiment [6] the test system is SF-268 CNS.
Experiment [7] concerns UACC-62 melanoma.
In experiment [8] the test system is MCF7 breast.
Experiment [9] deals with NCI-H522 lung.
The subject of experiment [10] is BT-549 breast.

“And” between values parts separate entries of the source, which are not always exact repeats. Equal values may be shown once.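 A five-concentration, 48-hour dose response in 96-well plates underlies each endpoint, interpolated linearly between surrounding concentrations. GI50 is the concentration that inhibits growth by half. TGI: total growth inhibition.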 Where a SMILES comes first, the peptide text is derived from it. Bridges are numbered along the chain shown (N, C = ends).

With `CCOC(=O)c1cnc2n(c1=O)[C@H]1CCCC[C@@H]1N2`, the TGI in [1], in experiment [2], in experiment [3], in [4], in [5] and in experiment [6] was more than 100 µM in each case. The TGI in experiment [7], in experiment [8], in experiment [9] and in experiment [10] was more than 100 µM throughout.

Take `Cc1cc(NS(=O)(=O)c2ccc(Nc3c4ccccc4nc4c(C(=O)NC(CO)(CO)CO)cccc34)cc2)no1`: the TGI in experiment [1] was more than 100 µM; in experiment [2], 92.2 µM; in [3], more than 100 µM; in [4], more than 100 µM; in [5] it was more than 100 µM; in experiment [6] it was 60.6 µM. In addition, the TGI in experiment [7] is 75.1 µM; in experiment [8], more than 100 µM; in experiment [9], 34.4 µM; in experiment [10], 98.9 µM.

For the molecule `COc1ccc(Cn2c(=O)c(OS(=O)(=O)C(F)(F)F)c(C)c3cc4ccccc4cc32)cc1`, the TGI in experiment [1], in experiment [2], in experiment [3], in experiment [4], in experiment [5] and in experiment [6] was more than 100 µM each time. The TGI in experiment [7], in experiment [8], in experiment [9] and in experiment [10] was more than 100 µM each time.

Consider `O=S1(=O)N=C(SCc2c[nH]c3ccccc23)N(c2ccccc2)c2ccncc21`, for which the TGI in [1], in [2], in experiment [3], in [4], in experiment [5] and in [6] was more than 100 µM in each case. Further, the TGI in experiment [7], in experiment [8], in experiment [9] and in [10] was more than 100 µM in each case.

In the case of `CC12CC(c3ccccc3O1)C(C(=O)Nc1nccs1)C(=O)N2` (stereo unspecified), the TGI in experiment [1], in experiment [2], in experiment [3], in [4], in [5] and in experiment [6] was more than 100 µM in each case. In addition, the TGI in experiment [7], in experiment [8], in experiment [9] and in experiment [10] was more than 100 µM throughout.

Consider `COc1ccc(N=C(C)C(C)=Nc2ccc(OC)cc2)cc1`, for which the TGI in experiment [1], in [2], in experiment [3], in experiment [4], in [5] and in experiment [6] was more than 100 µM in each case. Moreover, the TGI in [8], in experiment [9] and in [10] was more than 100 µM in each case.

As to `COc1cc(/C=C2\N=C(c3ccccc3)N(c3cc4cc(Sc5ccccc5)ccc4[nH]3)C2=O)ccc1O`, the TGI in [1] is 4.19 µM; in experiment [2], more than 50 µM; in experiment [3], more than 50 µM; in experiment [4], more than 50 µM; in experiment [5], 5.56 µM; in experiment [7], more than 50 µM. Also, the TGI in experiment [8], in [9] and in experiment [10] was more than 50 µM each time.

Regarding `COC(=O)C1CCC(=O)NCCCCC(NC(=O)C(N)CC(=O)O)C(=O)N1` (stereo not drawn) (H-Asp-Lys-Glu-OMe; lactam 2-3; configuration not given here), the TGI in [1], in [2], in [3], in experiment [4], in experiment [5] and in experiment [6] was more than 100 µM in each case. In addition, the TGI in [7], in experiment [8], in [9] and in experiment [10] was more than 100 µM throughout.

As to `CCN(CC)CC[n+]1ccc2c(C)c3[nH]c4ccccc4c3c(C)c2c1`, the GI50 was 0.402 µM and < 0.0437 µM in experiment [1]; 0.374 µM in [2]; 1.13 µM in [4]; 0.491 µM and 0.827 µM and 1.27 µM in experiment [7]; 0.323 µM in experiment [8]; 0.247 µM in experiment [9]. The TGI in experiment [1] was 3.7 µM and 0.464 µM and 0.743 µM; in experiment [2], 1.92 µM and 2.27 µM and 1.15 µM; in experiment [3], 3.72 µM; in [4], 1.3 µM and 6.15 µM and 2.1 µM; in [5] it was 2.14 µM; in [6], 1.07 µM and 1.28 µM and 1.64 µM. The TGI is 1.65 µM and 2.56 µM and 3.75 µM in [7]; 7.36 µM and 5.5 µM and 2.47 µM in experiment [8]; 1.36 µM and 2.58 µM and 1.87 µM in experiment [9]; 4.95 µM in experiment [10].

For `C[C@H](CCc1nc(C#N)c(N)o1)[C@H]1CC[C@H]2[C@@H]3CCC4C[C@@H](O)CC[C@]4(C)[C@H]3C[C@@H](O)[C@]12C` (stereo partly specified), the TGI in [1] was determined as 2.38 µM; in experiment [2] it was 28.4 µM; in experiment [3] it was 28 µM; in experiment [4], 26.6 µM; in experiment [5], 30 µM; in experiment [6], 27.8 µM. Besides, the TGI in experiment [7] was found to be 25.3 µM; in experiment [8] it was 35.7 µM; in experiment [9] it was 16.2 µM; in [10], 14.7 µM.

Regarding `O=C(NNC(=O)c1ccc(Cl)cc1NC(=O)C12CC3CC(CC(C3)C1)C2)c1ccc(Cl)cc1`, the TGI in [1] was 58.7 µM; in experiment [2] it was 38.5 µM; in [3], 62.1 µM; in [5], 35.6 µM; in [6], more than 100 µM; in experiment [7], 55.8 µM. The TGI in [8] is 87.5 µM; in [9], 36 µM; in experiment [10] it was more than 100 µM.

Consider `C[C@H](NC(=O)C(C)(Cc1ccc(O)cn1)NC(=O)c1ccccc1)c1ccccc1` (stereo partly specified), for which the TGI in experiment [1], in [2], in [3], in experiment [4], in experiment [5] and in [6] was more than 100 µM each time. In addition, the TGI in experiment [7], in [8], in experiment [9] and in experiment [10] was more than 100 µM each time.

Turning to `CC1=NN(c2ccccc2)C(=O)/C1=C\c1c(C)[nH]n(-c2ccccc2)c1=O`, the TGI in [1], in [2], in [3], in experiment [4], in experiment [5] and in [6] was more than 100 µM each time. For the same molecule, the TGI in [7], in experiment [8], in experiment [9] and in [10] was more than 100 µM each time.

For `O=C1CC(c2cccc([N+](=O)[O-])c2)C2(C(=O)NC(=S)NC2=O)C(c2cccc([N+](=O)[O-])c2)C1` (stereo unspecified), the TGI is more than 100 µM in experiment [1]; 53.2 µM in [2]; more than 100 µM in experiment [3]; more than 100 µM in experiment [4]; 66.2 µM in experiment [5]; 43.4 µM in [6]. The TGI was 60.6 µM in experiment [7], 50.9 µM in [8], 89.6 µM in experiment [9] and 81.4 µM in experiment [10].

As to `CC(C)=CCNc1ncnc2c1ncn2CCC(=O)O`, the TGI in experiment [1], in experiment [2], in experiment [3], in experiment [4], in experiment [5] and in [6] was more than 100 µM each time. In addition, the TGI in experiment [7], in experiment [8], in experiment [9] and in experiment [10] was more than 100 µM each time.

For `COC(=O)[C@@H]1C=CCN1S(=O)(=O)c1ccc(C)cc1`, the TGI in experiment [1] was 53.5 µM; in [2], more than 100 µM; in experiment [3], more than 100 µM; in [4], more than 100 µM; in experiment [5], 39.2 µM; in experiment [6], more than 100 µM. The TGI in [7], in experiment [8], in experiment [9] and in experiment [10] was more than 100 µM each time.

As for `O=[N+]([O-])/C(Cl)=C(\NCCO)C(Cl)=C(Cl)Cl`, the TGI in [1] is 11.4 µM; in experiment [2], 65 µM; in [3], more than 100 µM; in experiment [4] it was more than 100 µM; in experiment [5], more than 100 µM; in experiment [6], more than 100 µM. For the same molecule, the TGI in experiment [7] is more than 100 µM; in [8], more than 100 µM; in experiment [9], 53 µM; in experiment [10], more than 100 µM.

With `Cc1cc2ccccc2oc(=O)/c1=N\Nc1ccccc1`, the TGI in [1], in [2], in [3], in [4], in experiment [5] and in experiment [7] was more than 100 µM each time. In addition, the TGI in [8], in experiment [9] and in experiment [10] was more than 100 µM each time.

As to `COc1ccc(/C=C/C(=O)c2cc(CN(C)C)c(O)c(CN(C)C)c2)cc1`, the TGI is 54.5 µM in experiment [1]; 54.2 µM in [2]; more than 100 µM in experiment [3]; more than 100 µM in [4]; more than 100 µM in [5]; more than 100 µM in experiment [6]. Besides, the TGI was more than 100 µM in experiment [8], 43.2 µM in experiment [9] and 72.9 µM in experiment [10].
